Source: US20160199369A1, “Extruded Immediate Release Abuse Deterrent Pill” (priority 2013, published 2016)

Key:
[1] = relative solubility, yes/no; cited from earlier work
[2] = General solubility of exemplary components; type: physicochemical; conditions: 200 proof ethanol, filtered through 0.22 micrometer PTFE filter
Excerpt: The following table lists the relative solubility of exemplary components of a formulation. A number of different dyes are listed along with their solubility information taken from the various literature sources and tested experimentally (200 proof ethanol and filtered through a 0.22 micrometer PTFE filter).

SMILES: CCN(Cc1cccc(S(=O)(=O)[O-])c1)c1ccc(C(=C2C=CC(=[N+](CC)Cc3cccc(S(=O)(=O)[O-])c3)C=C2)c2ccccc2S(=O)(=O)[O-])cc1.[Na+].[Na+] [FD&C Blue #1]
- Alcohol Solubility (Literature) [1]: Yes
- Water Solubility [1]: Yes

SMILES: O=C1/C(=C2\Nc3ccc(S(=O)(=O)[O-])cc3C2=O)Nc2ccc(S(=O)(=O)[O-])cc21.[Na+].[Na+] [FD&C Blue #2]
- Alcohol Solubility (tested) [2]: Yes
- Alcohol Solubility (Literature) [1]: Yes
- Water Solubility [1]: Yes

SMILES: COc1cc(S(=O)(=O)[O-])c(C)cc1N=Nc1c(O)ccc2cc(S(=O)(=O)[O-])ccc12.[Na+].[Na+] [FD&C Red #40]
- Alcohol Solubility (tested) [2]: Yes
- Alcohol Solubility (Literature) [1]: Yes
- Water Solubility [1]: Yes

SMILES: O=C([O-])C1=NN(c2ccc(S(=O)(=O)[O-])cc2)C(=O)C1N=Nc1ccc(S(=O)(=O)[O-])cc1.[Na+].[Na+].[Na+] (stereo not shown) [FD&C Yellow #5]
- Alcohol Solubility (tested) [2]: Yes
- Alcohol Solubility (Literature) [1]: Yes
- Water Solubility [1]: Yes

SMILES: COc1ccc2c3c1O[C@H]1C(=O)CC[C@@]4(O)[C@@H](C2)N(C)CC[C@]314.Cl [Oxycodone HCl, reference compound]
- Alcohol Solubility (Literature) [1]: Yes
- Water Solubility [1]: Yes
